Assay results reported in ChEMBL document CHEMBL1139117, “Novel 4-(6,7-dimethoxy-1,2,3,4-tetrahydroisoquinolin-2-yl)methylbenzofuran derivatives as selective alpha(2C)-adrenergic receptor antagonists” (Bioorg Med Chem Lett, 2007).
pKi: −log10 of the molar value. Active and inactive are the calls of the source. The calls are words filed in the database; no cut-off is given here.

Legend:
[1] = molecular target: T1, Alpha-2C adrenergic receptor (Homo sapiens) (UniProt P18825); test: Displacement of [3H]MK912 from adrenergic alpha-2C receptor in HepG2 cells at 0.1 uM; type: cell-based
T1 sequence (whole entry): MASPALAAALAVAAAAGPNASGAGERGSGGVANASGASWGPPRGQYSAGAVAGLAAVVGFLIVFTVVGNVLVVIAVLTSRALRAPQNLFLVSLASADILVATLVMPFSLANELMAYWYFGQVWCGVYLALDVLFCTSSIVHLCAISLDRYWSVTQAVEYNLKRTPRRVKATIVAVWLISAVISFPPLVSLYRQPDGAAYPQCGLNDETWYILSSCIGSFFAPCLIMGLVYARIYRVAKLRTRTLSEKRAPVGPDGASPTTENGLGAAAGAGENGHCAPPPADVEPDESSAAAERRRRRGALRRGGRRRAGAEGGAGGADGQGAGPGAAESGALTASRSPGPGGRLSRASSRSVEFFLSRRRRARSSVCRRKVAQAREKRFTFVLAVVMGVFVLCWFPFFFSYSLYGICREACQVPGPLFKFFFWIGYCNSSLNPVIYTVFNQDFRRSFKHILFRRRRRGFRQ

[2] = molecular target: T2, Alpha-2B adrenergic receptor (Homo sapiens, UniProt P18089); test: Displacement of [3H]MK912 from adrenergic alpha-2B receptor expressed in COS7 cells; type: cell-based, COS-7
T2 sequence (P18089 whole entry): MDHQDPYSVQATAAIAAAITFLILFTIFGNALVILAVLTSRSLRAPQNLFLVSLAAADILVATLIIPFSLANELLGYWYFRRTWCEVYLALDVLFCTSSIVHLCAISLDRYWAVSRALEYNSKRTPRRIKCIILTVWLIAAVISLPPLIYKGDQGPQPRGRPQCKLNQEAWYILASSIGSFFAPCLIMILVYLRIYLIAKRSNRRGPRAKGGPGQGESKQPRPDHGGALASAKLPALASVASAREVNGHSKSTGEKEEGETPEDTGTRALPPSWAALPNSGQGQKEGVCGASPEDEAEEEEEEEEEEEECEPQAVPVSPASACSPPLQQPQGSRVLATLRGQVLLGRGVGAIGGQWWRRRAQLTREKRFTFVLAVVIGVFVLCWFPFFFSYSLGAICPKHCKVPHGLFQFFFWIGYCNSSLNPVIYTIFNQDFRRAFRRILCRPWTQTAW

[3] = molecular target: T3, Alpha-2A adrenergic receptor (Homo sapiens, UniProt P08913); test: Displacement of [3H]MK-912 from adrenergic alpha2A receptor in HT29 cells; type: cell-based, HT-29
T3 sequence (P08913 whole entry): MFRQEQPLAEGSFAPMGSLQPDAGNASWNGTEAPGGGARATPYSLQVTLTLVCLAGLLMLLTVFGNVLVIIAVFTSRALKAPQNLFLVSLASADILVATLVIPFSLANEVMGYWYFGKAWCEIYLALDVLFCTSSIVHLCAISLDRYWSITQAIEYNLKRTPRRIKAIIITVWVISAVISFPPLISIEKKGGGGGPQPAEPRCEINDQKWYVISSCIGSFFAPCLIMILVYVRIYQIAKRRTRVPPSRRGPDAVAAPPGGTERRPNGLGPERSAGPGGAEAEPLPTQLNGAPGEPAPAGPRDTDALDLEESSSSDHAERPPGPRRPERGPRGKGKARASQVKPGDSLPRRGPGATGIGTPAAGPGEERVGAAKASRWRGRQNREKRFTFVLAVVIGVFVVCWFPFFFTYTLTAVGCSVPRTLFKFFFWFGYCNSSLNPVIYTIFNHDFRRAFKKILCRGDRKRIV

[4] = molecular target: T4, Alpha-2C adrenergic receptor (Homo sapiens, UniProt P18825); test: Displacement of [3H]MK912 from adrenergic Alpha-2C receptor in HepG2 cells; type: cell-based
T4 sequence (P18825 whole entry): T1 sequence (whole entry)

[5] = molecular target: T5, Alpha-2A adrenergic receptor (Homo sapiens) (UniProt P08913); test: Displacement of [3H]MK912 from adrenergic alpha2A receptor in HT29 cells at 0.1 uM; type: cell-based; settings: HT-29
T5 sequence (whole entry): T3 sequence (P08913 whole entry)

[6] = molecular target: T6, Alpha-2B adrenergic receptor (Homo sapiens) (UniProt P18089); test: Displacement of [3H]MK912 from adrenergic alpha-2B receptor expressed in COS7 cells at 0.1 uM; type: cell-based; settings: COS-7
T6 sequence (whole entry): T2 sequence (P18089 whole entry)

[7] = AUC in mormoset at 2.5 mg/kg; type: ADME, organism-based, Callithrix jacchus; parameters: dose 2.5 mg/kg; settings: marmoset, plasma
[8] = system: Callithrix jacchus; test: Activity against […] induced dyskinetic activity in marmoset at 30 mg/kg, po; type: functional, organism-based; parameters: dose 30 mg/kg
[9] = system: Callithrix jacchus; test: Activity against […] induced dyskinetic activity in marmoset at 2.5 mg/kg, po; type: functional, organism-based; parameters: dose 2.5 mg/kg

SMILES | inhibition [1] [%] | pKi [2] | pKi [3] | pKi [4] | other results
COc1cc2c(cc1OC)CN(Cc1ccc(OC)c3oc(C(=O)NCCO)cc13)CC2 | 6 |  |  |  | 
COc1cc2c(cc1OC)CN(Cc1cc(OC)c3oc(C(=O)NCCN(C)C)cc3c1)CC2 | 41 |  |  |  | 
COc1cc2c(cc1OC)CN(Cc1ccc(OC)c3oc(-c4cccc(C#N)c4)cc13)CC2 | 42 |  |  |  | 
COc1cc2c(cc1OC)CN(Cc1ccc(OC)c3oc(C(=O)NC4CN5CCC4CC5)cc13)CC2 (stereo not given) |  | 6.07 | 7.38 | 9.10 | 
COc1cc2c(cc1OC)CN(Cc1ccc3cc(C(=O)NCCN(C)C)oc3c1OC)CC2 | 65 |  |  |  | inhibition [5]: 20%; inhibition [6]: 15%
COc1cc2c(cc1OC)CN(Cc1cc(OC)c3oc(-c4ccccc4)cc3c1)CC2 | 19 |  |  |  | 
COc1cc2c(cc1OC)CN(Cc1ccc(OC)c3oc(-c4ccc(C(F)(F)F)cc4)cc13)CC2 | 18 |  |  |  | 
COc1cc2c(cc1OC)CN(Cc1ccc(OC)c3oc(-c4cccc(C(=O)NCCO)c4)cc13)CC2 | 54 |  |  |  | inhibition [5]: 29%; inhibition [6]: 31%
COc1cc2c(cc1OC)CN(Cc1cnc(N)n3nc(-c4ccco4)nc13)CC2 |  | 6.43 | 6.40 | 7.72 | 
COc1cccc(-c2cc3c(CN4CCc5cc(OC)c(OC)cc5C4)ccc(OC)c3o2)c1 |  | 6.09 | 5.59 | 7.72 | 
COc1cc2c(cc1OC)CN(Cc1ccc(OC)c3oc(C(=O)NCCN(C)C)cc13)CC2 |  | 5.68 | 6.34 | 8.03 | AUC [7]: 144 ng·h/mL; Activity [8]: inactive
COc1cc2c(cc1OC)CN(Cc1ccc(OC)c3oc(-c4ccccc4C(F)(F)F)cc13)CC2 |  | 6.02 | 6.52 | 7.74 | 
COc1cc2c(cc1OC)CN(Cc1ccc(OC)c3oc(-c4ccco4)cc13)CC2 |  | 6.80 | 6.69 | 8.10 | 
COc1ccc(CN2CCc3ccccc3C2)c2cc(C(=O)NCCN(C)C)oc12 | 94 |  |  |  | inhibition [5]: 88%; inhibition [6]: 51%
COc1cc2c(cc1OC)CN(Cc1ccc(OC)c3oc(-c4cccnc4)cc13)CC2 | 62 |  |  |  | 
COc1cc2c(cc1OC)CN(Cc1ccc(OC)c3oc(-c4ccccc4OC)cc13)CC2 | 35 |  |  |  | inhibition [5]: 11%; inhibition [6]: 20%
COc1cc2c(cc1OC)CN(Cc1ccc(OC)c3oc(-c4cccc(F)c4)cc13)CC2 | 52 |  |  |  | inhibition [5]: 3%; inhibition [6]: 13%

SMILES | inhibition [1] [%] | pKi [2] | pKi [3] | pKi [4] | other results
CCCNC(=O)c1cccc(-c2cc3c(CN4CCc5cc(OC)c(OC)cc5C4)ccc(OC)c3o2)c1 | 48 |  |  |  | 
COc1cc2c(cc1OC)CN(Cc1ccc(OC)c3oc(C(=O)NCCNC(C)=O)cc13)CC2 | 9 |  |  |  | 
COc1ccc(CN2CCc3ccccc3C2)c2cc(-c3ccccc3)oc12 | 54 |  |  |  | inhibition [5]: 30%; inhibition [6]: 51%
COc1cc2c(cc1OC)CN(Cc1ccc(OC)c3oc(-c4cccc(C(=O)NCCN(C)C)c4)cc13)CC2 |  | 6.23 | 6.67 | 8.03 | 
COc1cc2c(cc1OC)CN(Cc1ccc3cc(-c4ccccc4)oc3c1OC)CC2 | 39 |  |  |  | 
COc1cc2c(cc1OC)CN(Cc1ccc(OC)c3oc(-c4ccccn4)cc13)CC2 |  | 6.48 | 6.87 | 8.02 | 
COc1cc2c(cc1OC)CN(Cc1ccc(OC)c3oc(-c4ccc(F)cc4)cc13)CC2 | 41 |  |  |  | 
COc1cc2c(cc1OC)CN(Cc1ccc(OC)c3oc(C(=O)N4CCC(N5CCCC5)CC4)cc13)CC2 |  | 5.87 | 6.73 | 8.46 | 
COc1ccc(CN2CCN(c3ccccc3)CC2)c2cc(-c3ccccc3)oc12 | 29 |  |  |  | 
COc1cc2c(cc1OC)CN(Cc1ccc(OC)c3oc(-c4ccccc4)cc13)CC2 |  | 6.12 | 5.76 | 7.70 | Activity [9]: Active; AUC [7]: 11 ng·h/mL
COc1cc2c(cc1OC)CN(Cc1ccc(OC)c3oc(C(=O)NCC(C)(C)N)cc13)CC2 |  | 5.81 | 6.85 | 8.38 | 
COc1cc2c(cc1OC)CN(Cc1ccc(OC)c3oc(-c4ccncc4)cc13)CC2 | 35 |  |  |  | 
COc1ccc(CN2CCN(c3ccccc3)CC2)c2cc(C(=O)NCCN(C)C)oc12 | 68 |  |  |  | inhibition [5]: 80%; inhibition [6]: 33%
COc1ccc(-c2cc3c(CN4CCc5cc(OC)c(OC)cc5C4)ccc(OC)c3o2)cc1 | 56 |  |  |  | 
CCCNC(=O)c1cc2c(CN3CCc4cc(OC)c(OC)cc4C3)ccc(OC)c2o1 | 20 |  |  |  | 
COc1cc2c(cc1OC)CN(Cc1ccc(OC)c3oc(-c4ccccc4F)cc13)CC2 |  | 6.52 | 6.07 | 7.96 | 
